Values quoted from earlier work, collected in US20250099408A1, “IMPROVED SURAMIN METHODS AND COMPOSITIONS” (priority 2022, published 2025).

System: HIV
Conditions: suramin 1 g IV

Question: For `Cc1ccc(C(=O)Nc2ccc(S(=O)(=O)O)c3cc(S(=O)(=O)O)cc(S(=O)(=O)O)c23)cc1NC(=O)c1cccc(NC(=O)Nc2cccc(C(=O)Nc3cc(C(=O)Nc4ccc(S(=O)(=O)O)c5cc(S(=O)(=O)O)cc(S(=O)(=O)O)c45)ccc3C)c2)c1` [suramin], which “virus in the blood circulation” value (HIV patients) is on record?
Answer: Its value is “almost clearing the virus from the blood circulation”.

Question: What about the “clinical improvement of the patients” value of the same compound?
Answer: Its value is “did not give clinical improvements”.
